The numbers were not newly measured in patent publication US20200330542A1, “COMPOSITION FOR THE ACUTE AND CHRONIC TREATMENT OF CONSTIPATION” (NEILOS S.R.L., priority 2017, published 2020), which cites them from elsewhere.

The conditions of this series: human, in vivo.

In the case of glucomannan, the tolerability entry is reported as “well tolerated without significant side effects”.
